Results on eight compounds are retold here after ChEMBL document CHEMBL4368857, “New amyloid beta-disaggregating agents: synthesis, pharmacological evaluation, crystal structure and molecular docking of N-(4-((7-chloroquinolin-4-yl)oxy)-3-ethoxybenzyl)amines” (Medchemcomm, 2018).

Assay [1] has as its target T1, Amyloid-beta precursor protein (Homo sapiens, UniProt P05067). Briefly: Inhibition of HFIP-pretreated amyloid beta (1 to 42) (unknown origin) self-induced aggregation at 50 uM after 48 hrs by thioflavin T-based fluorometric assay relative to control.
Assay [2] in a line: Antioxidant activity assessed as trolox equivalent of AAPH-induced radical scavenging activity at 1 to 8 uM pretreated for 15 mins followed by AAPH addition measured at 1 min interval for 80 mins by ORAC-FL assay. It counts as functional.
Assay [3] is described as follows: Metal chelating activity assessed as Cu2+-compound complex formation by measuring shift in maximum absorption wavelength at 30 uM after 30 mins by UV-Vis spectroscopic method.
Assay [4] deals with Acetylcholinesterase (Electrophorus electricus) (UniProt O42275). Nature of the assay: Potency index, ratio of donepezil effect to test compound effect for inhibition of electric eel AChE-induced amyloid beta (1 to 42) aggregation.
Sequence of Acetylcholinesterase (Electrophorus electricus) (O42275 24-633 limits assumed): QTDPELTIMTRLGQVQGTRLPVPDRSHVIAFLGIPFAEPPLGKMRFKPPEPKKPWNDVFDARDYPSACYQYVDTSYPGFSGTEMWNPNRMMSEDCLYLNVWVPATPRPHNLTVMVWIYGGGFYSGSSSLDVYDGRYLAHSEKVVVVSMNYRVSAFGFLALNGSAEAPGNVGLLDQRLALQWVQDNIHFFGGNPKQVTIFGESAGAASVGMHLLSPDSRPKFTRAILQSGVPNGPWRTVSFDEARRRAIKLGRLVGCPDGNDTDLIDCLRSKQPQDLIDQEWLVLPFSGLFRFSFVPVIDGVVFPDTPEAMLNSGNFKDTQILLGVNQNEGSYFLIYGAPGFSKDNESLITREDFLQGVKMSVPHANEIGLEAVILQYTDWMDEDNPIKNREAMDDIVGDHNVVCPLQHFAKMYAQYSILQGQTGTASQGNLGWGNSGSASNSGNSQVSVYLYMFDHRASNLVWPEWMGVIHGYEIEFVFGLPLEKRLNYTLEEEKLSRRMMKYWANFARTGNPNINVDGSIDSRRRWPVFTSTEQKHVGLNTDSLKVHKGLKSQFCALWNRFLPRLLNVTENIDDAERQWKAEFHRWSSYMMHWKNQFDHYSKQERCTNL
In assay [5] the target is T1, Amyloid-beta precursor protein. Nature of the assay: Inhibition of HFIP-pretreated amyloid beta (1 to 42) (unknown origin) self-induced aggregation at 75 uM after 48 hrs by thioflavin T-based fluorometric assay relative to control.
The target is the same in assay [6]. Nature of the assay: Disaggregation of self-induced amyloid beta (1 to 42) (unknown origin) assessed as appearance of sparse fibrils at 50 uM after 48 hrs by transmission electron microscopic analysis.
The target is the same in assay [7]. Nature of the assay: Inhibition of HFIP-pretreated amyloid beta (1 to 42) (unknown origin) self-induced aggregation after 48 hrs by thioflavin T-based fluorometric assay.
Assay [8] has the same target. Nature of the assay: Inhibition of HFIP-pretreated amyloid beta (1 to 42) (unknown origin) self-induced aggregation at 25 uM after 48 hrs by thioflavin T-based fluorometric assay relative to control.
A short description of assay [9]: Metal chelating activity assessed as Zn2+-compound complex formation by measuring shift in maximum absorption wavelength at 30 uM after 30 mins by UV-Vis spectroscopic method.
A short description of assay [10]: Metal chelating activity assessed as stoichiometric ratio of Cu2+-compound complex at 30 uM after 30 mins by Job plot analysis.
A short description of assay [11]: Inhibition of Cu2+-induced amyloid beta (1 to 42 residues) (unknown origin) aggregation at 50 uM after 24 hrs by thioflavin T-based fluorometric assay relative to control.
Assay [12] can be described thus: Metal chelating activity assessed as Fe2+-compound complex formation by measuring shift in maximum absorption wavelength at 30 uM after 30 mins by UV-Vis spectroscopic method.
The nature of assay [13]: Metal chelating activity assessed as Al3+-compound complex formation by measuring shift in maximum absorption wavelength at 30 uM after 30 mins by UV-Vis spectroscopic method.
A short description of assay [14]: Metal chelating activity assessed as Al3+-compound complex formation at 30 uM after 30 mins by UV-Vis spectroscopic method.
Assay [15] in a line: Metal chelating activity assessed as Zn2+-compound complex formation at 30 uM after 30 mins by UV-Vis spectroscopic method.

Calls of active or inactive are those of the source. No cut-off for these calls is given here.

T1 sequence (P05067 whole entry): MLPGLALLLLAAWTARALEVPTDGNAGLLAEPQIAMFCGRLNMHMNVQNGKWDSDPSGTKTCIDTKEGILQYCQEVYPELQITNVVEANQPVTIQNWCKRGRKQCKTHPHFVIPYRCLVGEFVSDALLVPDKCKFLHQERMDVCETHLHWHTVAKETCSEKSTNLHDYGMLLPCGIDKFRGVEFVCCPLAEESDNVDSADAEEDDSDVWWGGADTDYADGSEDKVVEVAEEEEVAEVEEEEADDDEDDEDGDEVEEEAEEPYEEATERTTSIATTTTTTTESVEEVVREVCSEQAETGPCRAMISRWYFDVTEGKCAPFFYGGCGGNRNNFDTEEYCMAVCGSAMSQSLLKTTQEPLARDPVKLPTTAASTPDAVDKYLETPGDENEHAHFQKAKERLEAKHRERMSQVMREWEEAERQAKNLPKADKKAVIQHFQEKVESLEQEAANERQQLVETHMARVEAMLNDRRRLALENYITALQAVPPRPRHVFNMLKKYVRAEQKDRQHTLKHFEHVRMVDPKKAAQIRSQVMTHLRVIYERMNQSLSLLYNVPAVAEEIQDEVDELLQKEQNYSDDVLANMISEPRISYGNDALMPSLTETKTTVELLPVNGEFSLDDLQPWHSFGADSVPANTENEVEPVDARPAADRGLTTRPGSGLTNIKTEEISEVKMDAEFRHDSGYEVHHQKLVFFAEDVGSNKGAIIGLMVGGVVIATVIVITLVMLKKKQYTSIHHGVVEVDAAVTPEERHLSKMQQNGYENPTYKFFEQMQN

`CCOc1cc(CNc2cccc(C(F)(F)F)c2)ccc1Oc1ccnc2cc(Cl)ccc12`: the inhibition in assay [1] was 30%. The Activity (umolequiv/umol) in [2] came to 1.56.

Turning to `CCOc1cc(CNc2cccc(C)n2)ccc1Oc1ccnc2cc(Cl)ccc12`, in assay [1], the inhibition was 41.6%. The Activity (umolequiv/umol) in assay [2] amounted to 0.87.

Take `CCOc1cc(CNc2ccc(OC)cc2)ccc1Oc1ccnc2cc(Cl)ccc12`: the Activity in assay [3] was 304 nm; in [9], 304 nm; in assay [12] it was 305 nm; in assay [13] it was 304 nm. Moreover, the Ratio in [4] was over 2; in assay [10] it was 0.8. The inhibition in assay [1] was found to be 53.7%; in assay [5] it was 6.89%; in assay [8], 26.7%; in assay [11] it was 32.7%. For the same compound, the Activity (umolequiv/umol) in assay [2] came out at 1.95. Besides, in assay [6], the result was Active. Also, the IC50 in [7] was 46.4 µM.

For the compound `CCOc1cc(CNc2ccccc2)ccc1Oc1ccnc2cc(Cl)ccc12`, the Activity in assay [3] and in assay [12] was 305 nm each time. The Ratio in assay [4] was over 2; in assay [10], 0.5. The inhibition amounted to 53.6% in assay [1], 3.37% in assay [5], 37.1% in assay [8] and 22.4% in assay [11]. For the same compound, the Activity (umolequiv/umol) in [2] was 2.72. In addition, the outcome in [6], in assay [14] and in assay [15] was Active. The IC50 in assay [7] came to 44.5 µM.

For `CCOc1cc(CNc2ccc(C)cc2)ccc1Oc1ccnc2cc(Cl)ccc12`, the inhibition in assay [1] stood at 46.8%. In addition, the Activity (umolequiv/umol) in [2] is 2.28.

With `CCOc1cc(CNc2ccccn2)ccc1Oc1ccnc2cc(Cl)ccc12`, in [1], the inhibition was 41.5%. Further, in [2], the Activity (umolequiv/umol) came to 0.55.

Take `CCOc1cc(CNc2ccc(F)cc2F)ccc1Oc1ccnc2cc(Cl)ccc12`: the inhibition in [1] came to 27.8%. The Activity (umolequiv/umol) in assay [2] stood at 2.37.

With `COc1cc(/C=C/C(=O)CC(=O)/C=C/c2ccc(O)c(OC)c2)ccc1O`, the inhibition in [11] came out at 52.9%.

The term inhibition denotes the relative decrease from the control value, in per cent. What is called IC50 is the concentration that inhibits the measured activity by half.
